Reference: ChEMBL document CHEMBL3046145, “Computational and experimental evaluation of ornithine derivatives as ornithine decarboxylase inhibitors” (Med Chem Res, 2009)
pKd: −log10 of the molar value. Active and inactive are the calls of the source. The rule behind the calls is not given here.

What was measured:
[1] = target: T1, Ornithine decarboxylase (Homo sapiens, UniProt P11926); assay: Binding affinity to ODC (unknown origin)
T1 sequence (P11926 whole entry): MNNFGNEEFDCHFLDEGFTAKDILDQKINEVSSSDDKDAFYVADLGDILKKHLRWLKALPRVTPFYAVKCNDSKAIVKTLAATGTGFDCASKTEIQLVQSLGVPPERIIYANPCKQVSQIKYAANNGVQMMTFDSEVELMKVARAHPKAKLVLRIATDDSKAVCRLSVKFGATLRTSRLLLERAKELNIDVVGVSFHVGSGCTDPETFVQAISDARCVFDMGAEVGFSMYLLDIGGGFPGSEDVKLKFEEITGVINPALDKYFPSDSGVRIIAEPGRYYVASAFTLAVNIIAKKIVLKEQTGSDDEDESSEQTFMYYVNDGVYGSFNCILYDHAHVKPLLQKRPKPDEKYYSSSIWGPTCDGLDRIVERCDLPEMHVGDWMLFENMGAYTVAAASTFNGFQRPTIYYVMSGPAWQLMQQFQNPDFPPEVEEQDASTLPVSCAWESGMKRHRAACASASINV

[2] = Toxicity in ip dosed Mus musculus CD1 (mouse) assessed as mortality; type: organism-based; details: in vivo
[3] = target: T2, Ornithine decarboxylase (Rattus norvegicus) (UniProt P09057); assay: Inhibition of Rattus norvegicus Wistar (rat) rat liver ODC assessed as inhibition of 14CO2 release from L-[14C]ornithine
T2 sequence (whole entry): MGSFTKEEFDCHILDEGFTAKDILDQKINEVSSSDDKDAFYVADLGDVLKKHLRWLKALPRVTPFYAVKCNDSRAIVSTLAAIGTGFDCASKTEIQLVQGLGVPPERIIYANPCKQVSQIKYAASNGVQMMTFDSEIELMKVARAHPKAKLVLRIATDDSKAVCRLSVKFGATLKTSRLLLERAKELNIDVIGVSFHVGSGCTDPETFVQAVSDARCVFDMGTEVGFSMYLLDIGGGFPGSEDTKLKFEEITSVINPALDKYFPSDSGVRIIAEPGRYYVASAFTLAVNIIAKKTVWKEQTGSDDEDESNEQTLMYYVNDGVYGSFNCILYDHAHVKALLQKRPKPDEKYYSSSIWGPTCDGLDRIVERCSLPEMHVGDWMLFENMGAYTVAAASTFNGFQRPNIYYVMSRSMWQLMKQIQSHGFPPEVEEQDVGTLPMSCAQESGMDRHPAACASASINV

[4] = species: Rattus norvegicus; assay: Toxicity in Rattus norvegicus (rat); type: organism-based; details: in vivo

## NCCC[C@@](N)(CF)C(=O)O
[1]
  pKd: 4.12

## N[C@@H](CCCNC(=O)CCl)C(=O)O
[1]
  pKd: 2.60
[2]
  LD50: 381 mg/kg
[3]
  inhibition: Active

## NCCC[C@H](NN)C(=O)O [ALPHA-HYDRAZINE ORNITHINE]
[1]
  pKd: 6.30

## NCCC[C@](N)(C(=O)O)C(F)F [EFLORNITHINE, (S)-]
[4]
  LD50: 300 µg

## NCCC[C@H](N)C(=O)O [ORNITHINE]
[1]
  pKd: 3.60
